Here are results for 13 compounds from patent publication US10961215B2, “N-aryl and N-heteroaryl piperidine derivatives as liver X receptor beta agonists, compositions, and their use” (Merck Sharp & Dohme Corp., priority 2016, dated 2021).

In assay [1] the target is T1, GST tagged LXRbeta LBD (ligand binding domain) (Homo sapiens, UniProt P55055).
T1 construct: purchased Invitrogen pv4658.pps
T1 sequence (P55055 222-460 limits assumed): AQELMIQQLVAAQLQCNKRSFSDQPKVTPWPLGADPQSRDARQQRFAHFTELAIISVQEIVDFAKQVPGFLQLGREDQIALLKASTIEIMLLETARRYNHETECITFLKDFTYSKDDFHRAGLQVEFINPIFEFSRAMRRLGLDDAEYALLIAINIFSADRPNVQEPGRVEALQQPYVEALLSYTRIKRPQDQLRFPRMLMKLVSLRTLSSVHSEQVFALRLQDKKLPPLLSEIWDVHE
Description: LanthaScreen TR-FRET Liver X Receptor Coactivator Assay, LXR beta-LBD (co-activator recruitment; IP and % Emax relative to T0901317). The format is biochemical. As to conditions: for EC50: Inflection Point of co-activator recruitment, LXR beta-LBD, TR-FRET; for Emax: efficacy at max dose in relation to reference T0901317, LXR beta-LBD, read-out: LXR beta actiivty at max dose (%). Summed up: (§1)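 Agonist-induced recruitment of a fluorescein-tagged coactivator peptide to the LBD is detected via terbium anti-GST TR-FRET.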

For assay [2], the target named is T2, GST tagged LXRalpha LBD (ligand binding domain) (Homo sapiens, UniProt Q13133).
T2 construct: purchased Invitrogen pv4655
T2 sequence (Q13133 209-447 limits assumed): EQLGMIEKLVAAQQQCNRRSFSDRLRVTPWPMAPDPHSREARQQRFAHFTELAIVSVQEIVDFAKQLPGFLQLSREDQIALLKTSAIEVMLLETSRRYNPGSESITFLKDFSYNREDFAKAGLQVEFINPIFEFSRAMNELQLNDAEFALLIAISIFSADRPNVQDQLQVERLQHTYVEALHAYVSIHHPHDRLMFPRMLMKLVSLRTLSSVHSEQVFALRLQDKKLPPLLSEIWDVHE
Put plainly: LanthaScreen TR-FRET Liver X Receptor Coactivator Assay, LXR alpha-LBD (co-activator recruitment; IP and % Emax relative to T0901317). The format is biochemical. As to conditions: for LXR alpha IP (nM) / EC50: Inflection Point of co-activator recruitment, LXR alpha-LBD, TR-FRET; for Emax: efficacy at max dose in relation to reference T0901317, LXR alpha-LBD, read-out: LXR alpha actiivty at max dose (%). Summed up: as §1
(Time-resolved FRET reads energy transfer from a long-lived donor to a nearby acceptor.)

Structures are written as SMILES.

One may read the EC50 as the concentration that produces a half-maximal response. On to `CC(C)[C@@]1(C(=O)N(C)CCCC2CCN(c3ccc(C(=O)N(C)C)c(Cl)n3)CC2)CCCO1` [Example 1-18, (R)-2-chloro-6-(4-(3-(2-isopropyl-N-methyl-tetrahydrofuran-2-ycarboxamido)propyl)piperidin-1-yl)-N,N-dimethylnicotinamide], for which, in assay [1], the half-maximal effective concentration (EC50) was 564 nM and the Emax came to 41%. For the same compound, in assay [2], the “LXR alpha IP (nM)” value is listed as “No IP” and the Emax is 13%.

For `CNC(=O)c1ccc(N2CCC3(CC2)CC3CCN(C)C(=O)[C@](O)(c2cccc(OC)c2)C(F)(F)F)nc1Cl` (stereo in doubt) [Example 7-20, 2-chloro-N-methyl-6-((R)-1-(2-((R)-3,3,3-trifluoro-2-hydroxy-2-(3-methoxyphenyl)-N-methylpropanamido)ethyl)-6-azaspiro[2.5]octan-6-yl)nicotinamide], the EC50 in assay [1] was 36 nM; in assay [2], 1180 nM. Moreover, the Emax in assay [1] was 60%; in assay [2], 40%.

On to `COc1cccc([C@@](O)(C(=O)N(C)CCCC2CCN(c3ccc(C(=O)N4CC(NC(=O)OC(C)(C)C)C4)c(Cl)n3)CC2)C(F)(F)F)c1` [Example 2-9, (R)-tert-butyl 1-(2-chloro-6-(4-(3-(3,3,3-trifluoro-2-hydroxy-2-(3-methoxyphenyl)-N-methylpropanamido)propyl)piperidin-1-yl)nicotinoyl) azetidin-3-ylcarbamate], for which, in assay [1], the response was half-maximal at 9 nM (EC50) and the Emax worked out at 65%. Besides, in assay [2], the concentration giving a half-maximal response (EC50) was determined as 164 nM and the Emax was found to be 45%.

For the compound `CN(C)C(=O)c1ccc(N2CCC(CCCN(C)C(=O)C(O)C(F)(F)F)CC2)nc1Cl` (stereo not shown) [Example 1-52, 2-chloro-N,N-dimethyl-6-(4-(3-(3,3,3-trifluoro-2-hydroxy-N-methylpropanamido)propyl)piperidin-1-yl)nicotinamide], in assay [1], the response was half-maximal at 5040 nM (EC50) and the Emax was found to be 46%. Further, in assay [2], the “LXR alpha IP (nM)” value is reported as “No IP” and the Emax is 11%.

For the compound `CC(C)C(O)(C(=O)N(C)CCCC1CCN(c2ccc(C(=O)N(C)C)c(Cl)c2)CC1)C(F)(F)F` (stereo not shown) [Example 4-8, 2-chloro-4-(4-(3-(2-hydroxy-N,3-dimethyl-2-(trifluoromethyl)butanamido)propyl)piperidin-1-yl)-N,N-dimethyl-benzamide], in assay [1], the EC50 amounted to 471 nM and the Emax was determined as 73%. In assay [2], the EC50 came out at 3350 nM and the Emax stood at 23%.

Turning to `CN(C)C(=O)c1ccc(N2CCC(CCCN(C)C(=O)[C@](O)(c3cc(Cl)cc(Cl)c3)C(F)(F)F)CC2)nc1Cl` [Example 1-37, (R)-2-chloro-6-(4-(3-(2-(3,5-dichlorophenyl)-3,3,3-trifluoro-2-hydroxy-N-methylpropanamido)propyl)piperidin-1-yl)-N,N-dimethylnicotinamide], in assay [1], a half-maximal response (EC50) required 35 nM and the Emax is 44%. Besides, in assay [2], the “LXR alpha IP (nM)” value was “No IP” and the Emax was 0%.

`CN(C)C(=O)c1ccc(N2CCC([C@@H]3C[C@H]3CN(C)C(=O)[C@@](O)(c3ccccc3)C(F)(F)F)CC2)nc1Cl` [Example 15-16, 2-chloro-N,N-dimethyl-6-(4-((1S,2R)-2-(((S)-3,3,3-trifluoro-2-hydroxy-N-methyl-2-phenylpropanamido)methyl)cyclopropyl)piperidin-1-yl)nicotinamide]: in assay [1], the EC50 was 583 nM and the Emax came to 58%. For the same compound, in assay [2], the “LXR alpha IP (nM)” value is listed as “No IP” and the Emax amounted to 0%.

Take `CN(C)C(=O)c1ccc(N2CCC(CCCN(C)C(=O)[C@](O)(c3ccccc3)C3CC3)CC2)nc1Cl` [Example 1-24, (R)-2-chloro-6-(4-(3-(2-cyclopropyl-2-hydroxy-N-methyl-2-phenylacetamido)propyl)piperidin-1-yl)-N,N-dimethylnicotinamide]: in assay [1], the response was half-maximal at 351 nM (EC50) and the Emax came to 59%. Also, in assay [2], the “LXR alpha IP (nM)” value is “No IP” and the Emax is 12%.

Consider `CNC(=O)c1ccc(N2CCC(CC3CC(NC(=O)[C@](O)(c4ccccc4)C(F)(F)F)C3)CC2)cc1Cl` (stereo partly drawn) [Example 11-3, (R)-2-chloro-N-methyl-4-(4-((3-(3,3,3-trifluoro-2-hydroxy-2-phenylpropanamido)cyclobutyl)methyl)piperidin-1-yl)benzamide], for which, in assay [1], a half-maximal effect (EC50) was put at 508 nM and the Emax is 93%. In assay [2], the EC50 turned out to be 6010 nM and the Emax was found to be 22%.

Consider `COc1cccc([C@@](O)(C(=O)N(C)[C@H]2C[C@H](C3CCN(c4ccc(C(=O)N(C)C)c(Cl)n4)CC3)C2)C(F)(F)F)c1` [Example 17-3, Trans-2-chloro-N,N-dimethyl-6-(4-(-3-((R)-3,3,3-trifluoro-2-hydroxy-2-(3-methoxyphenyl)-N-methylpropanamido)cyclobutyl)piperidin-1-yl)nicotinamide], for which, in assay [1], the concentration for a half-maximal effect (EC50) was determined as 27 nM and the Emax stood at 65%. Moreover, in assay [2], the “LXR alpha IP (nM)” value is recorded as “No IP” and the Emax was 12%.

For `COc1cccc([C@@](O)(C(=O)N(C)CCCC2CCN(c3ccc(C(N)=O)c(Cl)n3)CC2)C(F)(F)F)c1` [Example 2-16, (R)-2-chloro-6-(4-(3-(3,3,3-trifluoro-2-hydroxy-2-(3-methoxyphenyl)-N-methylpropanamido)propyl)piperidin-1-yl)nicotinamide], in assay [1], a half-maximal effect (EC50) was put at 296 nM and the Emax was found to be 54%. Besides, in assay [2], the “LXR alpha IP (nM)” value is listed as “No IP” and the Emax stood at 12%.

Regarding `CN(C)C(=O)c1ccc(N2CCC(CCCNC(=O)OCc3ccccc3)CC2)nc1Cl` [Example 5-5, benzyl 3-(1-(6-chloro-5-(dimethylcarbamoyl)pyridin-2-yl)piperidin-4-yl)propyl-carbamate], in assay [1], the midpoint of the response, the EC50, lay at 1510 nM and the Emax was 39%. Moreover, in assay [2], the “LXR alpha IP (nM)” value is on record as “No IP” and the Emax worked out at 0%.

Take `CN(C)C(=O)c1ccc(N2CCC(F)(CCCN(C)C(=O)[C@](O)(c3ccccc3)C(F)(F)F)CC2)cc1Cl` [Example 12-1, (R)-2-chloro-4-(4-fluoro-4-(3-(3,3,3-trifluoro-2-hydroxy-N-methyl-2-phenylpropanamido)propyl)piperidin-1-yl)-N,N-dimethylbenzamide]: in assay [1], the 50% effective concentration (EC50) stood at 266 nM and the Emax was 44%. In assay [2], the “LXR alpha IP (nM)” value is recorded as “No IP” and the Emax was determined as 12%.
